This note sets out measurements from PMC6815239 (Nature chemistry, 2019).

Test [1] concerns the target MalA (Malbranchea aurantiaca, UniProt L0E155). Kind of test: LC/MS halogenation assay. Type of test: biochemical. The following applies: full pathway reconstitution, NaCl.
For test [2], the target named is MalG R (Malbranchea aurantiaca, UniProt L0E2Z1). Kind of test: LC/MS product formation. Type of test: biochemical. The settings on record: substrate analog 23 loaded on MalG T2.
In test [3] the target is T1, PhqE (Penicillium fellutanum, UniProt L0E2Z4). Kind of test: X-ray crystal structure, […] Å. Format: binding. The settings on record: complex with (+)-premalbrancheamide.
T1 sequence (L0E2Z4 whole entry): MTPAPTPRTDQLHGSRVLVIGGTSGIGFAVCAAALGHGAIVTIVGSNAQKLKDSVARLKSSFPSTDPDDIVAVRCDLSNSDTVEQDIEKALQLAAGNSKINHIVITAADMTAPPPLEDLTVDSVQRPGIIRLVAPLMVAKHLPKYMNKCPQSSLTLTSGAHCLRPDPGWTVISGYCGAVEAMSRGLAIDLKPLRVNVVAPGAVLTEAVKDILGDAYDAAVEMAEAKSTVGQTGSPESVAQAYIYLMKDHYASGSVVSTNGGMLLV
Test [4] deals with T1, PhqE. Kind of test: X-ray crystal structure. Format: binding. The following applies: crystals grown with NAD+.
The target in test [5] is T2, MalE (Malbranchea aurantiaca, UniProt L0E2P7).
T2 sequence (L0E2P7 1-438): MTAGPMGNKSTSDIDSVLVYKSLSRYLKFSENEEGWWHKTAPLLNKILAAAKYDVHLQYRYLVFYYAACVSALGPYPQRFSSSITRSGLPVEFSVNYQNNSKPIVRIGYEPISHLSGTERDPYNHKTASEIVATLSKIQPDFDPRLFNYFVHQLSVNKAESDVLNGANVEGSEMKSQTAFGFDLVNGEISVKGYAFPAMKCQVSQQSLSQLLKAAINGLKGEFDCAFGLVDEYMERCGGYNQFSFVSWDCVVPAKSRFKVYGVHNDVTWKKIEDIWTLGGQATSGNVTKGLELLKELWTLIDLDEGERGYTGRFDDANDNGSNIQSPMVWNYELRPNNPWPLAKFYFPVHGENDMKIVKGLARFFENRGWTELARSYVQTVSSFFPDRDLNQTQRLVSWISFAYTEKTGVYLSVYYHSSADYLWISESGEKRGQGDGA
Kind of test: prenyltransferase assay, LC/MS. Type of test: biochemical. The settings on record: substrate-loaded MalG domains, NADPH.

The target of test [6] is T3, MalB (Malbranchea aurantiaca, UniProt L0E2Y5).
T3 sequence (L0E2Y5 1-369): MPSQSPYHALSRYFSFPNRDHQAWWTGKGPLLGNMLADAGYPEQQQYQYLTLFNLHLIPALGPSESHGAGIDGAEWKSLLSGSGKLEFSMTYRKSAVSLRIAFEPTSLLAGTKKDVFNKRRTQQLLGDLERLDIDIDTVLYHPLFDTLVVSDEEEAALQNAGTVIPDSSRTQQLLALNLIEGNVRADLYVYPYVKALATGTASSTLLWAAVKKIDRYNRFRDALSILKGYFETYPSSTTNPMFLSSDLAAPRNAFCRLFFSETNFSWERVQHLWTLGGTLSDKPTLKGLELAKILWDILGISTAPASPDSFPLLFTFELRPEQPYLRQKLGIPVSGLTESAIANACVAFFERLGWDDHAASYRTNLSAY
Kind of test: prenyltransferase assay, LC/MS. Format: biochemical. The following applies: substrate-loaded MalG domains, NADPH.

Sequence of MalA (L0E155 whole entry): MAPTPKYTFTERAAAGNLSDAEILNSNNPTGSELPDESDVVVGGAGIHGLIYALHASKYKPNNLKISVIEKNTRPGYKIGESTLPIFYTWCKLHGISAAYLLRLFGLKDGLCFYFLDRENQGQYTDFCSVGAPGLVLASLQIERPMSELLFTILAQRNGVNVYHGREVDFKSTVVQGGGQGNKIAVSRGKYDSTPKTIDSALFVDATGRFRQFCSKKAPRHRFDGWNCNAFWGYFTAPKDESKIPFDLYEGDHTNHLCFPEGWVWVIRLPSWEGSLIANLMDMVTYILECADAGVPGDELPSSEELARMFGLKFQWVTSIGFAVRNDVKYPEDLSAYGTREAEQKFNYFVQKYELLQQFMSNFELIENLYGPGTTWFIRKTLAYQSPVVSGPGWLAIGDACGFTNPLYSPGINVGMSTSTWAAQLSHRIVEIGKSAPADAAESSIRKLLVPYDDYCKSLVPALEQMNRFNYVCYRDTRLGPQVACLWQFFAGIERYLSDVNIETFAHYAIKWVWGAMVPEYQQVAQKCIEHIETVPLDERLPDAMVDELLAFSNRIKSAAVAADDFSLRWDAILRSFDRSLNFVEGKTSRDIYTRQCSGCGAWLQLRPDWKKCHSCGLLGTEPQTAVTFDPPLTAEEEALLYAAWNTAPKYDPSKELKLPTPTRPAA
Sequence of MalG R (L0E2Z1 1950-2345): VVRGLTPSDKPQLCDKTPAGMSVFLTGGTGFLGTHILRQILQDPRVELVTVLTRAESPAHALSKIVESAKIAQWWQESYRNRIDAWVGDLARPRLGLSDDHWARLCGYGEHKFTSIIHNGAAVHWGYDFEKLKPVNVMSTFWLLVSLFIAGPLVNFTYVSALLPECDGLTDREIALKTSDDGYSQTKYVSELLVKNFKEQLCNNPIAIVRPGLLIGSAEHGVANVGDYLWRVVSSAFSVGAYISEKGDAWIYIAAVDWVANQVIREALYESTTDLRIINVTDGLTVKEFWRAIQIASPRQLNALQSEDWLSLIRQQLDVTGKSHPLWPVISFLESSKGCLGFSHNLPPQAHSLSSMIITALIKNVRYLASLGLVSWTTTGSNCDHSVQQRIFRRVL

Take `Cc1cc2c(cc1C)N(C[C@H](O)[C@H](O)[C@H](O)COP(=O)(O)OP(=O)(O)OC[C@H]1O[C@@H](n3cnc4c(N)ncnc43)[C@H](O)[C@@H]1O)c1[nH]c(=O)[nH]c(=O)c1N2` [FADH2]: the LC/MS halogenation assay result in test [1] is “We incubated MalA with its pathway partners (L-Pro and L-Trp MalG, MalE and MalC, NADPH”.

For `NC(=O)C1=CN([C@@H]2O[C@H](COP(=O)(O)OP(=O)(O)OC[C@H]3O[C@@H](n4cnc5c(N)ncnc54)[C@H](OP(=O)(O)O)[C@@H]3O)[C@@H](O)[C@H]2O)C=CC1` [NADPH], the LC/MS product formation result in test [2] was “NADPH was the preferred cofactor in this reaction”.

For the molecule `NC(=O)c1ccc[n+]([C@@H]2O[C@H](COP(=O)(O)OP(=O)(O)OC[C@H]3O[C@@H](n4cnc5c(N)ncnc54)[C@H](OP(=O)(O)O)[C@@H]3O)[C@@H](O)[C@H]2O)c1` [NADP^+], the “X-ray crystal structure, 2.4 Å” value in test [3] is on record as “PhqE crystals grown with NADP^+ showed strong electron density for the cofactor”.

As for `NC(=O)c1ccc[n+]([C@@H]2O[C@H](COP(=O)(O)OP(=O)(O)OC[C@H]3O[C@@H](n4cnc5c(N)ncnc54)[C@H](O)[C@@H]3O)[C@@H](O)[C@H]2O)c1` [NAD^+], in test [4], the X-ray crystal structure entry is recorded as “while NAD^+ showed weak electron density”.

Take `CC(C)=CCOP(=O)(O)OP(=O)(O)O` [dimethylallyl pyrophosphate]: the “prenyltransferase assay, LC/MS” value is reported as “dimethylallyl pyrophosphate (DMAPP), the prenyl donor. MalE readily catalyzed a C2 reverse prenyl transfer” in test [5] and “whereas MalB displayed modest activity” in test [6].
